“And” between values parts separate entries of the source, which are not always exact repeats. Equal values may be shown once. Toxic doses and inconclusive results are not listed. No stated cut-off is given here; in the data, active means T/C of 150% or more; inactive means T/C below 125%.
Tested on: L1210 leukemia ip in BDF1 mice, survival T/C
Assay: NCI In Vivo Anticancer Drug Screen. Data for tumor model L1210 Leukemia (intraperitoneal) in B6D2F1 (BDF1) mice
Details: endpoint: mean survival time, higher = longer survival
How it was run: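 Survival endpoint. Drug-treated group vs vehicle group, expressed as T divided by C. Tumor passaged by transplantation.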

[1] = dose: 100.0 mg/kg/injection, schedule: Q04DX002 (ip), vehicle: Klucel (hydroxypropylcellulose) (HPC)
[2] = dose: 200.0 mg/kg/injection, schedule: Q04DX002 (ip), vehicle: Klucel (hydroxypropylcellulose) (HPC)
[3] = dose: 400.0 mg/kg/injection, schedule: Q04DX002 (ip), vehicle: Klucel (hydroxypropylcellulose) (HPC)
[4] = dose: 50.0 mg/kg/injection, schedule: Q01DX009 (ip), vehicle: saline with Tween-80
[5] = dose: 100.0 mg/kg/injection, schedule: Q01DX009 (ip), vehicle: saline with Tween-80
[6] = dose: 100.0 mg/kg/injection, schedule: Q01DX001 (ip), vehicle: saline
[7] = dose: 200.0 mg/kg/injection, schedule: Q01DX001 (ip), vehicle: saline
[8] = dose: 100.0 mg/kg/injection, schedule: Q04DX003 (sc), vehicle: steriod suspending solution
[9] = dose: 200.0 mg/kg/injection, schedule: Q04DX003 (sc), vehicle: steriod suspending solution
[10] = dose: 200.0 mg/kg/injection, schedule: Q01DX009 (ip), vehicle: saline with Tween-80
[11] = dose: 100.0 mg/kg/injection, schedule: Q04DX002 (ip), vehicle: saline with Tween-80
[12] = dose: 200.0 mg/kg/injection, schedule: Q04DX002 (ip), vehicle: saline with Tween-80
[13] = dose: 400.0 mg/kg/injection, schedule: Q04DX002 (ip), vehicle: saline with Tween-80
[14] = dose: 100.0 mg/kg/injection, schedule: Q01DX009 (ip), vehicle: Klucel (hydroxypropylcellulose) (HPC)
[15] = dose: 100.0 mg/kg/injection, schedule: Q04DX003 (ip), vehicle: Klucel (hydroxypropylcellulose) (HPC)
[16] = dose: 200.0 mg/kg/injection, schedule: Q01DX009 (ip), vehicle: Klucel (hydroxypropylcellulose) (HPC)
[17] = dose: 200.0 mg/kg/injection, schedule: Q04DX003 (ip), vehicle: Klucel (hydroxypropylcellulose) (HPC)
[18] = dose: 400.0 mg/kg/injection, schedule: Q01DX009 (ip), vehicle: Klucel (hydroxypropylcellulose) (HPC)
[19] = dose: 400.0 mg/kg/injection, schedule: Q04DX003 (ip), vehicle: Klucel (hydroxypropylcellulose) (HPC)

Measured: T/C

COc1ccc(/C=N/NC(=O)c2ccccc2N)cc1
inactive: [1] 98 % of control | [2] 106 % of control | [3] 106 % of control

COc1cc(CC#N)cc(OC)c1
inactive: [4] 102 % of control | [5] 88 % of control

O=Nc1c(O)ccc2ncccc12
inactive: dose: 75.0 mg/kg/injection, schedule: Q01DX001 (ip), vehicle: other 104 % of control | dose: 150.0 mg/kg/injection, schedule: Q01DX001 (ip), vehicle: other 104 % of control

Cc1ccc(S(=O)(=O)CCN2CCN(C)CC2)cc1
inactive: [6] 100 % of control | [7] 94 % of control

CC(=O)OC1CCC2(C)C(CCC3C2CCC2(C)C(C(C)CCO)CCC32)C1 (configuration not stated)
inactive: [8] 95 % of control | [9] 104 % of control | dose: 400.0 mg/kg/injection, schedule: Q04DX003 (sc), vehicle: steriod suspending solution 100 % of control

CC(=O)Nc1ccc(S(=O)(=O)Nc2ccccc2C(F)(F)F)cc1
inactive: [5] 93 % of control | [10] 104 % of control | dose: 400.0 mg/kg/injection, schedule: Q01DX009 (ip), vehicle: saline with Tween-80 91 % of control

CCCC(P(c1ccccc1)c1ccccc1)P(=O)(c1ccccc1)c1ccccc1 (configuration not stated)
inactive: [11] 94 % of control | [12] 94 % of control | [13] 94 % of control

CCc1cc(Cl)ccc1OCC(=O)O
inactive: [5] 97 % of control | [10] 105 % of control

CCCN(CCC)N=Nc1c(C(=O)OC)n[nH]c1C
inactive: dose: 50.0 mg/kg/injection, schedule: Q04DX003 (ip), vehicle: saline with Tween-80 103 % of control | dose: 100.0 mg/kg/injection, schedule: Q04DX003 (ip), vehicle: saline with Tween-80 104 % of control and 109 % of control | dose: 175.0 mg/kg/injection, schedule: Q01DX009 (ip), vehicle: saline 124 % of control | dose: 200.0 mg/kg/injection, schedule: Q04DX003 (ip), vehicle: saline with Tween-80 104 % of control and 109 % of control | dose: 400.0 mg/kg/injection, schedule: Q01DX009 (ip), vehicle: saline 96 % of control | dose: 400.0 mg/kg/injection, schedule: Q04DX003 (ip), vehicle: saline with Tween-80 102 % of control

COc1c(C(C)(C)C)cc([N+](=O)[O-])c(C)c1[N+](=O)[O-]
inactive: [14] 98 % of control | [15] 103 % of control | [16] 103 % of control | [17] 102 % of control | [18] 96 % of control | [19] 94 % of control

CCOC(=O)COc1ccccc1Cl
inactive: dose: 1.56 mg/kg/injection, schedule: Q04DX002 (ip), vehicle: Klucel (hydroxypropylcellulose) (HPC) 115 % of control | dose: 3.13 mg/kg/injection, schedule: Q04DX002 (ip), vehicle: Klucel (hydroxypropylcellulose) (HPC) 105 % of control | dose: 6.25 mg/kg/injection, schedule: Q04DX002 (ip), vehicle: Klucel (hydroxypropylcellulose) (HPC) 108 % of control | dose: 12.5 mg/kg/injection, schedule: Q04DX002 (ip), vehicle: Klucel (hydroxypropylcellulose) (HPC) 106 % of control | dose: 25.0 mg/kg/injection, schedule: Q04DX002 (ip), vehicle: Klucel (hydroxypropylcellulose) (HPC) 95 % of control | dose: 50.0 mg/kg/injection, schedule: Q04DX002 (ip), vehicle: Klucel (hydroxypropylcellulose) (HPC) 97 % of control

CC(=O)OCC(=O)[C@@]1(O)[C@H](C)C[C@H]2[C@@H]3C=C(C)C4=Cc5c(cnn5-c5ccc(F)cc5)C[C@]4(C)[C@H]3[C@@H](O)C[C@@]21C
inactive: dose: 0.62 mg/kg/injection, schedule: Q01DX015 (sc), vehicle: steriod suspending solution 120 % of control | dose: 1.25 mg/kg/injection, schedule: Q01DX015 (sc), vehicle: steriod suspending solution 117 % of control | dose: 2.5 mg/kg/injection, schedule: Q01DX015 (sc), vehicle: steriod suspending solution 102 % of control | dose: 5.0 mg/kg/injection, schedule: Q01DX015 (sc), vehicle: steriod suspending solution 117 % of control and 123 % of control | dose: 6.25 mg/kg/injection, schedule: Q01DX009 (sc), vehicle: steriod suspending solution 100 % of control | dose: 10.0 mg/kg/injection, schedule: Q01DX015 (sc), vehicle: steriod suspending solution 111 % of control | dose: 20.0 mg/kg/injection, schedule: Q01DX015 (sc), vehicle: steriod suspending solution 103 % of control | dose: 40.0 mg/kg/injection, schedule: Q01DX015 (sc), vehicle: steriod suspending solution 101 % of control | dose: 50.0 mg/kg/injection, schedule: Q04DX003 (sc), vehicle: steriod suspending solution 110 % of control | dose: 100.0 mg/kg/injection, schedule: Q01DX001 (ip), vehicle: steriod suspending solution 98 % of control | [8] 108 % of control | dose: 160.0 mg/kg/injection, schedule: Q01DX015 (sc), vehicle: steriod suspending solution 91 % of control | dose: 200.0 mg/kg/injection, schedule: Q01DX001 (ip), vehicle: steriod suspending solution 91 % of control | [9] 103 % of control

O=C(CCCO)NCCS(=O)c1ccccc1 (configuration not stated)
inactive: [11] 107 % of control | [12] 101 % of control | [13] 111 % of control

Cc1ccc([N+](=O)[O-])cc1NC(=O)N(C)Cc1ccc(Cl)cc1
inactive: dose: 100.0 mg/kg/injection, schedule: Q01DX001 (ip), vehicle: Klucel (hydroxypropylcellulose) (HPC) 90 % of control | [14] 89 % of control and 90 % of control | [15] 102 % of control | dose: 200.0 mg/kg/injection, schedule: Q01DX001 (ip), vehicle: Klucel (hydroxypropylcellulose) (HPC) 98 % of control | [16] 94 % of control and 97 % of control | [17] 98 % of control | dose: 400.0 mg/kg/injection, schedule: Q01DX001 (ip), vehicle: Klucel (hydroxypropylcellulose) (HPC) 93 % of control | [18] 93 % of control and 90 % of control | [19] 100 % of control and 122 % of control

CCCCCCCCCCCCNC(=O)OCCN(CCOC(=O)NCCCCCCCCCCCC)C(=O)COc1ccc(Cl)cc1
inactive: dose: 100.0 mg/kg/injection, schedule: Q01DX009 (ip), vehicle: other 92 % of control | dose: 200.0 mg/kg/injection, schedule: Q01DX009 (ip), vehicle: other 92 % of control | dose: 400.0 mg/kg/injection, schedule: Q01DX009 (ip), vehicle: other 96 % of control

COc1ccc2c(O)c(Cl)c(=O)oc2c1
inactive: dose: 100.0 mg/kg/injection, schedule: Q04DX003 (ip), vehicle: saline 91 % of control | dose: 200.0 mg/kg/injection, schedule: Q04DX003 (ip), vehicle: saline 91 % of control | dose: 400.0 mg/kg/injection, schedule: Q04DX003 (ip), vehicle: saline 94 % of control

CC(C(=O)c1ccccc1)c1ccccc1 (configuration not stated)
inactive: [4] 97 % of control | [5] 87 % of control | [1] 106 % of control | [11] 90 % of control | [10] 87 % of control | [2] 91 % of control | [12] 107 % of control | [3] 98 % of control | [13] 101 % of control

NC1C(=O)NC(=O)NC1=S (configuration not stated)
inactive: dose: 29.0 mg/kg/injection, schedule: Q01DX Z (ip), vehicle: methylcellulose (MC) 100 % of control | dose: 45.0 mg/kg/injection, schedule: Q01DX Z (ip), vehicle: methylcellulose (MC) 107 % of control

CC/C(=N/OC(=O)N(CC)CC)c1ccccc1
inactive: dose: 100.0 mg/kg/injection, schedule: Q01DX001 (ip), vehicle: other 96 % of control | dose: 200.0 mg/kg/injection, schedule: Q01DX001 (ip), vehicle: other 91 % of control | dose: 400.0 mg/kg/injection, schedule: Q01DX001 (ip), vehicle: other 93 % of control

O=C1c2ccccc2C(=O)C1(Br)C(Br)c1ccccc1 (configuration not stated)
inactive: [14] 102 % of control | [15] 96 % of control | [16] 101 % of control | [17] 94 % of control | [18] 93 % of control | [19] 96 % of control

Cc1ccc(Cl)nn1
inactive: [6] 108 % of control | [7] 109 % of control
